We go through six compounds from US20090298708A1, “2'-DEOXY-2'-FLUORO-BETA-D-ARABINONUCLEOSIDE 5'-TRIPHOSPHATES AND THEIR USE IN ENZYMATIC NUCLEIC ACID SYNTHESIS” (priority 2006, published 2009).

“Also recorded” adds a separate entry of the source. Marks after values point to notes of the source that are not given here.

For experiment [1], the target named is T1, 9° Nm™ DNA polymerase (9N) (Thermococcus sp., UniProt Q56366, E143D).
T1 construct: purchased New England Biolabs; host or cells: E. coli
Briefly: Primer extension assay with 9°Nm DNA polymerase. The settings on record: for Incorporation of three 2′F-araTTP / 2′F-araCTP (incorporation efficiency): DNA template PF22 (2′F-araTTP) or PF24 (2′F-araCTP); for Order of efficiency of incorporation: DNA template PF22 (T/U triphosphates) or PF24 (C triphosphates), three contiguous units; for Enzymatic activity during primer extension reactions: plus dATP, dGTP; for full-length products generated: DNA template PF22, within 2 min, without pausing. Set-up: key to Incorporation of three 2′F-araTTP / 2′F-araCTP (incorporation efficiency) / Enzymatic activity during primer extension reactions: ++++: excellent (no pausing observed); +++: very good (with slight pausing); ++: Good, full-length products with significant pausing; +: significant pausing, no full-length product but at least one 2′F-araN incorporation detected. The experiment is classed as biochemical, Thermococcus species (strain 9° N-7). On the procedure: (§1) Various different types of DNA polymerases were assessed, including the mesophilic enzyme Klenow fragment of DNA pol I (3′→5′ exo-) (“Kf”); the thermophilic DNA polymerases DV, 9N, Taq, Bst pol I, Th and Ph; and the viral reverse transcriptases HIV RT and MMLV. Kf is a genetically engineered proteolytic product of E. coli pol A gene that encodes DNA polymerase I which retains polymerase activity but has a mutation which abolishes the 3′->5′ and 5′->3′ exonuclease activities. DV is a genetically engineered DNA polymerase purified from a strain of E. coli that carries the DV DNA polymerase gene from Pyrococcus species GB-D. The gene has been engineered to eliminate 3′->5′ proofreading exonuclease activity. 9N is a genetically engineered DNA polymerase that has decreased 3′->5′ proofreading exonuclease activity. 9N is purified from a strain of E. coli that carries a modified 9° N DNA polymerase gene from Thermococcus species (strain 9° N-7). […] Taq polymerase is isolated from E. coli engineered to express Taq polymerase from Thermus aquaticus YT-1. Bst DNA polymerase (Large fragment) is a genetically engineered polymerase that consists of the portion of the Bacillus stearothemmophilus DNA polymerase protein responsible for 5′->3′ polymerase activity but lacks the 5′->3′ exonuclease domain. Th DNA polymerase is a genetically engineered, archaeon-derived DNA polymerase that is a variant of the 9N polymerase described above. The recombinant protein is isolated from E. coli engineered to express 9° NA485L (exo-) DNA polymerase gene, a genetic variant of the native DNA polymerase from Thermococcus species 9° N-7. Ph is a recombinant DNA polymerase that consists of a novel Pyrococcus-like enzyme fused with a double-strand DNA-binding and processivity-enhancing domain.
(§2) Primer extension assays were used to assess the incorporation of 2′F-araNTP on the various DNA templates (Table 1). The DNA primer (PF20) was first radioactively labeled at the 5′-hydroxyl terminus with a radioactive phosphorus probe and the enzyme T4 polynucleotide kinase (T4 PNK) (see Example 1 for General Methods). To assess the incorporation of 2′F-araNTPs, the primer and template were annealed, and the nucleoside 5′-triphosphates added in the presence of enzyme under the conditions specified in Table 2. Time points were obtained by analyzing small aliquots from the reaction mixture through polyacryamide gel electrophoresis (PAGE) and autoradiography.
(§3) Unless otherwise noticed in the Examples described below, the conditions used in the primer extension assays, such as dNTP concentration, reaction temperatures, concentration of Mg^2+, and reaction buffers (provided by the manufacturers, except for the HIV buffer which was prepared in-house) are shown in Table 2.
(§4) Primer extension assays were used to assess the incorporation of 2′F-araTTP on the DNA template (PF22). The DNA primer (PF20) was first radioactively labeled at the 5′-hydroxyl terminus with a radioactive phosphorus probe and the enzyme T4 polynucleotide kinase (T4 PNK) according to the manufacturer's specifications (MBI Fermentas Life Sciences, Burlington, ON). Incorporation of the ^32P label was accomplished in reaction mixtures consisting of DNA substrate (200 pmol), 2 μl loxreaction buffer (Buffer A for forward reaction: 500 mM Tris-HCl, pH 7.6 at 25° C., 100 mM MgCl2, 50 mM DTT, 1 mM spermidine and 1 mM EDTA), 1 μl T4 PNK enzyme solution (10 U/1 μl in a solution of 20 mM Tris-HCl, pH 7.5, 25 mM KCl, 0.1 mM EDTA, 2 mM DTT and 50% glycerol), 6 μl [γ-^32P]-ATP solution (6000 Ci/mmol, 10 mCi/ml; Amersham Biosciences, Inc.) and autoclaved sterile water to a final volume of 20 μl. The reaction mixture was incubated for about 45-60 min at 37° C., followed by a second incubation for 10 min at 95° C. to heat denature and deactivate the kinase enzyme.

In experiment [2] the target is T2, Deep Vent® (3′→5′ exo-) DNA polymerase (DV) (Pyrococcus sp., UniProt Q51334, D141A/DEL493-1029/E143A).
T2 construct: purchased New England Biolabs; host or cells: E. coli
The experiment can be described thus: Primer extension assay with Deep Vent (exo-) DNA polymerase. The experiment is classed as biochemical, Pyrococcus species GB-D. Set-up: key to Incorporation of three 2′F-araTTP / 2′F-araCTP (incorporation efficiency) / Enzymatic activity during primer extension reactions: ++++: excellent (no pausing observed); +++: very good (with slight pausing); ++: Good, full-length products with significant pausing; +: significant pausing, no full-length product but at least one 2′F-araN incorporation detected. The note with it: for Incorporation of three 2′F-araTTP / 2′F-araCTP (incorporation efficiency): DNA template PF22 (2′F-araTTP) or PF24 (2′F-araCTP); for Order of efficiency of incorporation: DNA template PF22 (T/U triphosphates) or PF24 (C triphosphates), three contiguous units; for Enzymatic activity during primer extension reactions: plus dATP, dGTP. On the procedure:
as §1, §2, §3, §4

Where [3] appears, read: Example 3, DNA template PF24, 3x 2′F-araCTP, dTTP, 55° C.
Setting [4] is: Example 2, DNA template PF22, 3x 2′F-araTTP, dCTP, at 37° C.

`Nc1ccn([C@@H]2O[C@H](COP(=O)(O)OP(=O)(O)OP(=O)(O)O)[C@@H](O)[C@@H]2F)c(=O)n1` [2′F-araCTP, 1-(2-deoxy-2-fluoro-β-D-arabinofuranosyl)cytosine 5′-triphosphate]: the “Incorporation of three 2′F-araTTP / 2′F-araCTP (incorporation efficiency)” value in experiment [1] (37° C.) was “None”; in experiment [1] (55° C.), “++++”; in experiment [2] (37° C.) it was “+++”; in experiment [2] (55° C.) it was “++++”. Also, the “Order of efficiency of incorporation” value in experiment [1] (55° C.) is on record as “dCTP~2′F-araCTP~2′F-rCTP”; in experiment [2] (55° C.), “dCTP~2′F-rCTP~2′F-araCTP”. The “Enzymatic activity during primer extension reactions” value in experiment [1] (setting [3]) is reported as “+++”; in experiment [2] (setting [3]), “++++”.

Turning to `Cc1cn([C@@H]2O[C@H](COP(=O)(O)OP(=O)(O)OP(=O)(O)O)[C@@H](O)[C@@H]2F)c(=O)[nH]c1=O` [2′F-araTTP, 1-(2-deoxy-2-fluoro-β-D-arabino-furanosyl)thymine 5′-triphosphate], the “Incorporation of three 2′F-araTTP / 2′F-araCTP (incorporation efficiency)” value in experiment [1] (37° C.) and in experiment [2] (37° C.) was “++++” throughout. Further, the “Order of efficiency of incorporation” value in experiment [1] (55° C.) and in experiment [2] (55° C.) was “dTTP~2′F-araTTP > 2′F-rUTP” each time. Also, the full-length products generated entry in experiment [1] (55° C.) is listed as “ca. 100%”. Further, the “Enzymatic activity during primer extension reactions” value in experiment [1] (setting [4]) and in experiment [2] (setting [4]) was “+++^b” in each case. For the same compound, the “yield of full length product” value in experiment [2] (DNA template PF22, after 5 min, 55° C.) is reported as “nearly quantitative yield; also recorded: near quantitative yield”.

Take `Nc1ccn([C@@H]2O[C@H](COP(=O)(O)OP(=O)(O)OP(=O)(O)O)[C@@H](O)[C@H]2F)c(=O)n1` [2′F-rCTP, 1-(2-deoxy-2-fluoro-β-D-ribofuranosyl) cytosine 5′-triphosphate, reference compound]: the “Order of efficiency of incorporation” value in experiment [1] (55° C.) is recorded as “dCTP~2′F-araCTP~2′F-rCTP”; in experiment [2] (55° C.), “dCTP~2′F-rCTP~2′F-araCTP”.

As to `O=c1ccn([C@@H]2O[C@H](COP(=O)(O)OP(=O)(O)OP(=O)(O)O)[C@@H](O)[C@H]2F)c(=O)[nH]1` [2′F-rUTP, 1-(2-deoxy-2-fluoro-β-D-ribo-furanosyl)uracil 5′-triphosphate, reference compound], the “Order of efficiency of incorporation” value in experiment [1] (55° C.) and in experiment [2] (55° C.) was “dTTP~2′F-araTTP > 2′F-rUTP” each time. Moreover, in experiment [1] (DNA template PF22, after one hour, 55° C.), the expected full-length product entry is on record as “ca. 20%”. The compound further registered a desired full-length product in experiment [2] (DNA template PF22, after 9.5 h, 55° C.) of 20%.

Take `Nc1ccn([C@H]2C[C@H](O)[C@@H](COP(=O)(O)OP(=O)(O)OP(=O)(O)O)O2)c(=O)n1` [dCTP]: the “Order of efficiency of incorporation” value in experiment [1] (55° C.) is given as “dCTP~2′F-araCTP~2′F-rCTP”; in experiment [2] (55° C.) it was “dCTP~2′F-rCTP~2′F-araCTP”.

As for `Cc1cn([C@H]2C[C@H](O)[C@@H](COP(=O)(O)OP(=O)(O)OP(=O)(O)O)O2)c(=O)[nH]c1=O` [dTTP, reference compound], in experiment [1] (55° C.), the “Order of efficiency of incorporation” value is “dTTP~2′F-araTTP > 2′F-rUTP” and the full-length products generated entry is on record as “ca. 100%”. Moreover, the “Order of efficiency of incorporation” value in experiment [2] (55° C.) is “dTTP~2′F-araTTP > 2′F-rUTP”.
